Legend:
[1] = molecular target: T1, PDIA1 (Homo sapiens, UniProt P07237); test: Glutathione reduction assay (di-E-GSSG), disulfide reductase activity; assay type: biochemical; details: di-E-GSSG substrate, PDIA1 20 nM, reducing conditions
T1 construct: The mature human PDIA1 with an N-terminal His6x-tag was expressed and purified; His6 (N); made in house
Method: (§1) The enzymatic activity of PDIA proteins was evaluated by glutathione reduction and insulin turbidity assays. PDIA1 and PDIA3 are proteins capable of catalyzing oxidation-reduction and isomerization reactions through thiol groups and disulfide bonds. Because the action of punicalagin on the reductase activity of the two proteins was previously evaluated by glutathione reduction assay, the same assay was repeated using punicalin to compare the effect of both molecules on PDIs.
(§2) Di-eosin glutathione disulfide (di-E-GSSG) was synthesized by the reaction of eosin isothiocyanate with oxidized glutathione (GSSG) and used as a fluorogenic substrate of PDIs to monitor disulfide reductase activity according to the method of Raturi and Mutus, with some modifications. Protein activity was evaluated by monitoring the emission fluorescence increase (λem = 545 nm and λex = 525 nm), and the effect of punicalin (concentration ranging from 2 to 50 µM) was tested.
(§3) In both assays, the inhibition constants were extrapolated by GraphPad Prism 8.0 software (GraphPad Software, San Diego, CA, USA), plotting the obtained data as logarithm dose–response curves.

[2] = molecular target: T2, PDIA3 (Homo sapiens, UniProt P30101); test: as above; assay type: biochemical; details: di-E-GSSG substrate, PDIA3 20 nM, reducing conditions
T2 construct: The mature recombinant form (devoid of the N-terminal presence) of the human PDIA3 protein was expressed and purified; made in house
T2 sequence (P30101 25-505): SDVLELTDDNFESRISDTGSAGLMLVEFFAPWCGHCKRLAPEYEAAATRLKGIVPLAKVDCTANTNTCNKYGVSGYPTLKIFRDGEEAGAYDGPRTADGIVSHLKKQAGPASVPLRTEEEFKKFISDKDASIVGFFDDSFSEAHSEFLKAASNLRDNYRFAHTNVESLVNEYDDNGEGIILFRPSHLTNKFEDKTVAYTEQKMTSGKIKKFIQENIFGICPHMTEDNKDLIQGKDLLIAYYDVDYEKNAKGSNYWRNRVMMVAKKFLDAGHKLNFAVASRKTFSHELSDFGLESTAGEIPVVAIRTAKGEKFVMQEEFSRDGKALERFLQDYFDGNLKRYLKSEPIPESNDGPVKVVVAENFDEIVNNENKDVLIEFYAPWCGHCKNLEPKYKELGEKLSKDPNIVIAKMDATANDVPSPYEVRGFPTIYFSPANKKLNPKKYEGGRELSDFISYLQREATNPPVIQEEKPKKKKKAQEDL
Method: as §1, §2, §3

[3] = molecular target: T2, PDIA3; test: Insulin turbidity assay, disulfide reductase activity; assay type: biochemical; details: insulin substrate, PDIA3 1600 nM, reducing conditions
Method: To further evaluate the inhibitory effect of punicalin and punicalagin on the enzymatic activity of the two proteins, we performed a different assay using insulin, a physiologically more appropriate substrate. The results obtained are reported in Figure 4 and show again a lesser inhibitory effect of punicalin compared to punicalagin, as observed with the glutathione-based assay.
PDI disulfide reductase activity was assayed by measuring the reduction of insulin catalyzed by PDIs with DTT. A 50 μM stock solution of each PDI was reduced using TCEP (5 mM final concentration) for 90 min at room temperature. Aliquots of the stock solution were diluted in the incubation mixture (PDIA1 1.6 µM and PDIA3 3.2 µM) containing sodium phosphate buffer (100 mM sodium phosphate, 2 mM EDTA, pH 7.0) added with punicalin/punicalagin (concentration ranging from 0 to 50 µM) and incubated at 37 °C for 1 h. After incubation, an equal volume of the 2× reaction mixture (consisting of DTT 50 μM and human insulin 0.32 mM) was added. Protein activity was evaluated by monitoring the increase in turbidity of the solutions at 600 nm.
as §3

[4] = tested on: T98G cells; test: Cell viability by MTT assay; assay type: cell-based, human
Method: (§4) The cell viability assay was used to evaluate the effect of punicalin as a PDI inhibitor. T98G and U87 MG glioblastoma cell lines were treated with increasing concentrations of punicalin, and the reduction in MTT substrate was determined after 24 h, 48 h, and 72 h. […] Here, we compared the ability of punicalin with that of punicalagin to prevent the growth of these cells (Figure 5).
(§5) T98G and U-87 MG cells were seeded into 96-well plates (10.000 cells/well). The effect of punicalin, at the final concentration of 1 µM to 20 µM, was evaluated on cell viability after 24 h and 48 h of incubation. To assess cell viability, the enzymatic reduction of MTT (3-(4,5-dimethylthiazol-2-yl)-2,5-diphenyl-2H-tetrazolium bromide) (Sigma-Aldrich, Milan, Italy, cat. M2128) to MTT formazan was used. Cell cultures were further incubated for 2 h in culture medium containing 0.5 mg/mL MTT. After 2 h of incubation, the solution was removed and the blue MTT formazan product was dissolved in DMSO (Sigma-Aldrich, cat. D8418). After 30 min at room temperature, the absorbance of the formazan solution was spectrophotometrically read at 570 nm using an Appliskan® plate reader (Thermo Fisher Scientific, Monza, Italy).

[5] = tested on: U87 MG cells; test: Cell viability by MTT assay; assay type: cell-based, human; details: 1 µM to 20 µM, 24 h, 48 h, 72 h
Method: as §4, §5

[6] = tested on: PDIA3 in T98G cells; test: Cellular distribution of PDIA3 by immunofluorescence; assay type: cell-based, human; details: 5 µM for 48 h and 20 µM for 24 h
Method: (§6) Possible changes in the cellular distribution of PDIA3 were previously studied by immunofluorescence assay. Recently, Bilches Medinas et al. reported that a PDIA3 mutation with the loss of functions induced protein aggregation. […] T98G and U87 MG cells were treated with 5 µM and 20 µM of punicalin for 48 h and 24 h, respectively (Figure 8).
(§7) T98G and U-87 MG cells were seeded on coverslips into 6-well plates (200,000 cells/well) and incubated for 24 h and 48 h in the presence of 5 µM and 20 µM punicalagin/punicalin. Cells grown on coverslips were washed with PBS, fixed with 3.7% formaldehyde for 20 min, rinsed with PBS, and then permeabilized with cold methanol (−20 °C) for 5 min. Immunofluorescence analysis was performed according to Paglia et al. using a specific primary antibody against PDIA3 (Millipore, Milan, Italy, cat. ABE1032). Coverslips were mounted on glass microscope slides with DuolinkTM mounting medium and examined using a fluorescence microscope (Leica AF6000 Modular System, Leica, Milan, Italy) with a 63× oil immersion objective. Samples were captured under the same acquisition parameters.

[7] = tested on: PDIA3 in U87 MG cells; test: as above; assay type: cell-based, human; details: 5 µM for 48 h and 20 µM for 24 h
Method: as §6, §7

T1 sequence (P07237 18-508): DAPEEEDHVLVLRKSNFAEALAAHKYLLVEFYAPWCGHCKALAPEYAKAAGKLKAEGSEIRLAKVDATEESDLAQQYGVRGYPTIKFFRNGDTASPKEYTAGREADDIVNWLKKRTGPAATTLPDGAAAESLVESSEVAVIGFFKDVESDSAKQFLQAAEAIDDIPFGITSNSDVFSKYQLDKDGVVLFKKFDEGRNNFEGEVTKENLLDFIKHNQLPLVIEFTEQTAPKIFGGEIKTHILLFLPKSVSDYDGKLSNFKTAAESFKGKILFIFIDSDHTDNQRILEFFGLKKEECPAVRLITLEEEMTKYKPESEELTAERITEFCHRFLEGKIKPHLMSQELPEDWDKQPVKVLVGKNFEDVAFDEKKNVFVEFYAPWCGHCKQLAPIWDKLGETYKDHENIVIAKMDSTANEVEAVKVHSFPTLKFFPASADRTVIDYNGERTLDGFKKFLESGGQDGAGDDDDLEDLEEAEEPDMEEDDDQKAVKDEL

- IC50 [1]: 58.3 µM
- IC50 [2]: 10.7 µM
- IC50 [3]: 28.7 µM
Compound: O=C1OC[C@H]2OC(O)[C@H](O)[C@@H](O)[C@@H]2OC(=O)c2cc(O)c(O)c(O)c2-c2c(O)c(O)c3oc(=O)c4c(c(O)c(O)c5oc(=O)c2c3c54)-c2c1cc(O)c(O)c2O (mixture of isomers) [Punicalin, punicalin]
- effect on cell viability (MTT) ([4]; 1 µM to 20 µM, 24 h, 48 h, 72 h): concentration- and time-dependent decrease in cell viability
- effect on cell viability ([4]; 20 µM): significantly reduced the cell viability
- effect on cell viability (MTT) [5]: the effect becomes evident only at the highest concentration
- change in cellular distribution of PDIA3 [6]: marked change in the fluorescence pattern and a cellular redistribution of PDIA3
- change in cellular distribution of PDIA3 [7]: marked change in the fluorescence pattern and a cellular redistribution of PDIA3

Reference: PMC11476419, “Analysis of Punicalin and Punicalagin Interaction with PDIA3 and PDIA1” (International Journal of Molecular Sciences, 2024)
